Measurements from patent US10988505B2.

What was measured:
[1] = biological target: recombinant human matriptase (Homo sapiens (Human), UniProt Q9Y5Y6); experiment: Matriptase inhibition, Ki determination; type: biochemical; conditions: purified recombinant human matriptase, Boc-Gln-Ala-Arg-AMC substrate, pH 7.4
X31 H3N2 influenza virus = experiment: Influenza virus replication X31 in Calu-3 cells (viral plaque assay); type: cell-based; conditions: Calu-3 human bronchial epithelial cells, 48 h, read-out: calu3_x31_H3N2 EC50 (avg)
cartilage damage = experiment: Osteoarthritis (OA) model, DMM surgery; type: in vivo, C57BL/6J mice; conditions: DMM mice, 5 microlitre intraarticular injections of 10 mg/ml in saline on days 7 and 28, scored day 56
Method: The ability of the tested compound to protects against in vivo aggrecan loss in an osteoarthritis (OA) model was evaluated as described by Litherland G J. et al. Arthritis Rheumatol 2014; 66:2175-87.
OA was induced in C57BL/6J mice following destabilization of the medial meniscus (DMM) surgery. Mice received 5 microlitre intraarticular injections of either saline or Compound 1 (10 mg/ml in saline) on days 7 and 28 post surgery. At day 56 post-surgery, mice were killed, knee joints isolated and fixed overnight in 7% formaldehyde in PBS. Joints were decalcified in EDTA in PBS for 10 days and then wax embedded. Consecutive sections (6 μm) were stained with safranin 0 with hematoxylin counterstaining and then cartilage damage graded (by two blinded, independent observers) according to a published grading system [Litherland, 2014]: 0 (normal) to 6 (vertical clefts/erosion to the calcified cartilage extending to […] of the articular surface). Bars show the mean+/−SD of the highestscores in the medial tibial and femoral condyles for each joint. […] The results are depicted in FIG. 1.
**P<0.01 for the control and ***P<0.001 for Compound 1, by Kruskal-Wallis test with Dunn's multiple comparison test.

Sequence of recombinant human matriptase (Q9Y5Y6 615-855, other chains not shown): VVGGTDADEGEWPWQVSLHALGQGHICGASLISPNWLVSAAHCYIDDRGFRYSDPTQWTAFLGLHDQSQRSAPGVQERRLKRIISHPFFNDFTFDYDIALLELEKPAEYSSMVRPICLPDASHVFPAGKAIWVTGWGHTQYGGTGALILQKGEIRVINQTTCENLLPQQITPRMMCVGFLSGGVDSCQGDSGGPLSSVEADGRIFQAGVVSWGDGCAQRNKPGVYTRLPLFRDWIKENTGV

Structure (SMILES) | Ki [1] | EC50 (X31 H3N2 influenza virus) | cartilage damage score (cartilage damage)
C[C@H](NC(=O)[C@@H](N)CCC(N)=O)C(=O)N[C@@H](CCCNC(=N)N)C(=O)c1nc2ccccc2s1 [Comparative #2, reference compound] | 0.0877 nM | 5690 nM | –
C[C@H](NC(=O)[C@H](CCC(N)=O)NC(=O)[C@@H](N)CCCNC(=N)N)C(=O)N[C@@H](CCCNC(=N)N)C(=O)c1nc2ccccc2s1 [Comparative #1, reference compound] | – | 7700 nM | –
CC(=O)N[C@@H](CCC(N)=O)C(=O)N[C@@H](Cc1ccccc1)C(=O)N[C@@H](CCCNC(=N)N)C(=O)c1nc2ccccc2s1 [Example 3] | – | 34 nM | –
N=C(N)NCCCCC(=O)N[C@@H](CCC(N)=O)C(=O)N[C@@H](Cc1ccccc1)C(=O)N[C@@H](CCCNC(=N)N)C(=O)c1nc2ccccc2s1 [Example 1] | 0.134 nM | 20.9 nM | decreased the cartilage damage score
